Results from ChEMBL document CHEMBL5729124, “Autotaxin inhibitor compounds” (2022).

Biological target: Autotaxin (Homo sapiens, UniProt Q13822)
Experiment: Human Autotaxin Assay: ATX activity is assayed in concentrated conditioned media from Hep3B human hepatocellular carcinoma cells by measuring the amount of choline released from the substrate, lysophosphatidylcholine (LPC) as it is cleaved to LPA. Conditioned media is collected from confluent Hep3B cells and concentrated 20-fold using Centriprep-30 filter devices (Millipore).

Row | SMILES | IC50 [nM]
1 | CCCn1cc(-n2c(Br)c(Sc3cccc(C(=O)O)c3)c3ccc(Cl)cc32)cn1 | < 500
2 | CC(C)(CO)Cn1cc(-n2c(C3CC3)c(Sc3cccc(C(=O)O)c3F)c3ccc(Cl)c(F)c32)cn1 | < 500
3 | C#CCCCCn1cc(-n2c(C3CC3)c(Sc3cccc(C(=O)O)c3F)c3ccc(Cl)c(F)c32)cn1 | < 500
